Results reported in ChEMBL document CHEMBL1795249, “Triazole-linked reduced amide isosteres: an approach for the fragment-based drug discovery of anti-Alzheimer's BACE1 inhibitors” (Bioorg Med Chem Lett, 2011).

Target: Beta-secretase 1 (Homo sapiens, UniProt P56817)
Test: Inhibition of BACE1 by cell-free FRET assay

Sequence of Beta-secretase 1 (P56817 whole entry): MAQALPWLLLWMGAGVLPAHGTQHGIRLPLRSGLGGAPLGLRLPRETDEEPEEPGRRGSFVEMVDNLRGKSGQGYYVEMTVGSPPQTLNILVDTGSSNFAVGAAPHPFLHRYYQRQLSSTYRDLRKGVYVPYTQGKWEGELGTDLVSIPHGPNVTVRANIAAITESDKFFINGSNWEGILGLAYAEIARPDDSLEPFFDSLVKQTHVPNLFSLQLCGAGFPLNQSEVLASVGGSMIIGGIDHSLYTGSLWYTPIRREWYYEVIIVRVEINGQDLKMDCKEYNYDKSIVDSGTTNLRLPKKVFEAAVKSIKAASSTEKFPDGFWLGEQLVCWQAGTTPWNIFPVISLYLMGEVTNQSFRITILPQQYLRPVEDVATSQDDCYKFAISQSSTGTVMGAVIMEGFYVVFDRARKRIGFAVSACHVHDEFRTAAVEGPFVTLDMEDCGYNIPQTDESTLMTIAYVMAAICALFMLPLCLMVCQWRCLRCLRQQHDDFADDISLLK

| SMILES | IC50 |
| --- | --- |
| COc1cccc(CNC[C@H](Cc2ccccc2)n2cc(-c3cc(C(=O)N[C@H](C)c4ccccc4)cc(N(C)S(C)(=O)=O)c3)nn2)c1 | 7000 nM |
| C[C@@H](NC(=O)c1cc(-c2cn([C@H](CNCc3cccc(Br)c3)Cc3ccccc3)nn2)cc(N(C)S(C)(=O)=O)c1)c1ccccc1 | 2000 nM |
| C#Cc1cccc(NC2CC(O)C(Nc3cccc(-c4cn([C@H](CNCc5cccc(Br)c5)Cc5ccccc5)nn4)c3)CC2O)c1 (mixture of isomers) | 3400 nM |
| C#Cc1cccc(NC2CC(Nc3cccc(-c4cn([C@H](CNCc5cccc(Br)c5)Cc5ccccc5)nn4)c3)C(O)CC2O)c1 (mixture of isomers) | 2400 nM |
